Source: patent publication US20230124862A1, “BISMUTH THIOL COMPOUNDS AND COMPOSITIONS AND METHODS OF TREATING MICROBIAL CO-INFECTIONS” (Microbion Corporation, priority 2020, published 2023)
Marks after values point to notes of the source that are not given here.

Legend:
Experiment in all cases: Antifungal broth microdilution (Example 13)
[1] = system: Candida glabrata; assay type: cell-based; details: 50% inhibition
[2] = system: Candida krusei; assay type: cell-based; details: 50% inhibition
[3] = system: Candida auris; assay type: cell-based; details: 50% inhibition
[4] = system: Aspergillus spp.; assay type: cell-based, A. niger, A. terreus, A. fumigatus, A. flavus; details: for MEC: minimum effective concentration; for MIC0: complete inhibition, comparator, time not stated
[5] = system: Candida albicans; assay type: cell-based; details: 50% inhibition, 24 hr
[6] = C. glabrata ATCC 90030, Susceptible
[7] = C. glabrata ATCC MYA-2950, Susceptible
[8] = C. glabrata MMX 7087, Susceptible
[9] = C. glabrata MMX 7103, CASP-R, MICA-R
[10] = C. glabrata MMX 7111, Susceptible
[11] = C. glabrata MMX 7285, CASP-R, MICA-R
[12] = C. glabrata MMX 7307, CASP-R, MICA-R, FLU-R
[13] = C. glabrata MMX 7549, Susceptible
[14] = C. krusei ATCC 14243, Susceptible
[15] = C. krusei ATCC 96685, Susceptible
[16] = C. krusei MMX 7125, Susceptible
[17] = C. krusei MMX 7128, Susceptible
[18] = C. krusei MMX 7141, Susceptible
[19] = C. krusei MMX 7155, Susceptible
[20] = C. krusei MMX 7563, Susceptible
[21] = C. krusei MMX 9878, MICA-I, VORI-I
[22] = C. auris MMX 9863, FLU-R, VORI-R
[23] = C. auris MMX 9864, FLU-R, VORI-R
[24] = C. auris MMX 9865, FLU-R, VORI-R
[25] = C. auris MMX 9866, FLU-R, VORI-R
[26] = C. auris MMX 9867, FLU-R, VORI-R
[27] = C. auris MMX 9868, FLU-R, VORI-R
[28] = C. auris MMX 9869, FLU-R, VORI-R
[29] = C. auris MMX 9870, FLU-R, VORI-R

Molecule CC[C@H](C)C[C@H](C)CCCCCCCCC(=O)N[C@H]1C[C@@H](O)[C@@H](NCCN)NC(=O)[C@@H]2[C@@H](O)CCN2C(=O)[C@H]([C@H](O)CCN)NC(=O)[C@H]([C@H](O)[C@@H](O)c2ccc(O)cc2)NC(=O)[C@@H]2C[C@@H](O)CN2C(=O)[C@H]([C@@H](C)O)NC1=O [CASP] has an MIC2 [1, 6] of 0.12 µg/mL, an MIC2 [1, 7] of 0.12 µg/mL and an MIC2 [1, 8] of 0.12 µg/mL. The MIC2 ([1]; C. glabrata MMX 7093, FLU-R) was 0.12 µg/mL, the MIC2 ([1]; C. glabrata MMX 7101, FLU-R) was 0.12 µg/mL and the MIC2 [1, 9] was >8 µg/mL. The MIC2 [1, 10] was 0.12 µg/mL, the MIC2 [1, 11] was 0.5 µg/mL and the MIC2 [1, 12] was >8 µg/mL. For the same molecule, the MIC2 [1, 13] was 0.06 µg/mL, the MIC2 ([2]; C. krusei ATCC 6258, MICA-I) was 0.25 µg/mL and the MIC2 [2, 14] was 0.012 µg/mL. It also gave an MIC2 [2, 15] of 0.12 µg/mL, an MIC2 [2, 16] of 0.25 µg/mL and an MIC2 [2, 17] of 0.25 µg/mL. For the same molecule, the MIC2 [2, 18] was 0.25 µg/mL, the MIC2 ([2]; C. krusei MMX 7153, MICA-R) was 0.25 µg/mL and the MIC2 [2, 19] was 0.25 µg/mL. It also gave an MIC2 [2, 20] of 0.12 µg/mL, an MIC2 [2, 21] of 0.25 µg/mL and an MIC2 ([3]; C. auris MMX 9862, Susceptible) of 0.12 µg/mL. The MIC2 [3, 22] was 0.12^b μg/mL, the MIC2 [3, 23] was 0.25^b μg/mL and the MIC2 [3, 24] was 0.25^b μg/mL. For the same molecule, the MIC2 [3, 25] was 0.12^b μg/mL, the MIC2 [3, 26] was 0.12 µg/mL and the MIC2 [3, 27] was 0.25 µg/mL. The MIC2 [3, 28] was 0.25 µg/mL, the MIC2 [3, 29] was 0.25 µg/mL and the MIC2 ([3]; C. auris MMX 9871, Susceptible) was 0.25^b μg/mL. For the same molecule, the MEC ([4]; A. flavus ATCC 22546) was 0.06 µg/mL, the MEC ([4]; A. flavus ATCC 204304) was 0.06 µg/mL and the MEC ([4]; A. flavus MMX 7935) was 0.03 µg/mL. For the same molecule, the MEC ([4]; A. fumigatus ATCC 204305) was 0.25 µg/mL, the MEC ([4]; A. fumigatus ATCC MYA-3626) was 0.06 µg/mL and the MEC ([4]; A. fumigatus MMX 5934) was 0.12 µg/mL. The MEC ([4]; A. fumigatus MMX 5938, 48 hr only, insufficient growth for 24 hr read) was 0.12^b μg/mL, the MEC ([4]; A. fumigatus MMX 5939) was 0.12 µg/mL and the MEC ([4]; A. niger ATCC 29508, 48 hr only, insufficient growth for 24 hr read) was 0.06^b μg/mL. For the same molecule, the MEC ([4]; A. terreus MMX 8229, 48 hr only, insufficient growth for 24 hr read) was 0.12^b μg/mL.

With C[C@@H](c1ncncc1F)[C@](O)(Cn1cncn1)c1ccc(F)cc1F [VORI] the MIC2 ([5]; C. albicans ATCC 90028, Susceptible) was ≤0.008 µg/mL, the MIC2 ([5]; C. albicans ATCC 204276, MICA-R) was ≤0.008 µg/mL and the MIC2 ([5]; C. albicans ATCC MYA-2732, FLU-R, VORI-I) was 0.5 µg/mL. For the same molecule, the MIC2 ([5]; C. albicans MMX 7053, Susceptible) was ≤0.008 µg/mL, the MIC2 ([5]; C. albicans MMX 7067, FLU-R, VORI-R) was >8 µg/mL and the MIC2 ([5]; C. albicans MMX 7403, Susceptible) was ≤0.008 µg/mL. The MIC2 ([5]; C. albicans MMX 7424, CASP-R, MICA-R) was ≤0.008 µg/mL, the MIC2 ([5]; C. albicans MMX 7430, Susceptible) was ≤0.008 µg/mL and the MIC2 ([5]; C. albicans MMX 7437, FLU-I) was 0.12 µg/mL. For the same molecule, the MIC2 ([5]; C. albicans MMX 7445, FLU-R, VORI-R) was >8 µg/mL, the MIC2 [1, 6] was 0.12 µg/mL and the MIC2 [1, 7] was 0.12 µg/mL. It also gave an MIC2 [1, 8] of 0.03 µg/mL, an MIC2 ([1]; C. glabrata MMX 7093, FLU-R) of 2 µg/mL and an MIC2 ([1]; C. glabrata MMX 7101, FLU-R) of 2 µg/mL. For the same molecule, the MIC2 [1, 9] was 0.12 µg/mL, the MIC2 [1, 10] was 0.06 µg/mL and the MIC2 [1, 11] was 1 µg/mL. It also gave an MIC2 [1, 12] of 4 µg/mL, an MIC2 [1, 13] of 0.06 µg/mL and an MIC2 ([2]; C. krusei ATCC 6258, MICA-I) of 0.12 µg/mL. It also gave an MIC2 [2, 14] of 0.06 µg/mL, an MIC2 [2, 15] of 0.5 µg/mL and an MIC2 [2, 16] of 0.25 µg/mL. The MIC2 [2, 17] was 0.12 µg/mL, the MIC2 [2, 18] was 0.12 µg/mL and the MIC2 ([2]; C. krusei MMX 7153, MICA-R) was 0.25 µg/mL. For the same molecule, the MIC2 [2, 19] was 0.25 µg/mL, the MIC2 [2, 20] was 0.25 µg/mL and the MIC2 [2, 21] was 1 µg/mL. For the same molecule, the MIC2 ([3]; C. auris MMX 9862, Susceptible) was 0.03 µg/mL, the MIC2 [3, 22] was >8 µg/mL and the MIC2 [3, 23] was 7 µg/mL. For the same molecule, the MIC2 [3, 24] was 8 µg/mL, the MIC2 [3, 25] was 8 µg/mL and the MIC2 [3, 26] was 8 µg/mL. For the same molecule, the MIC2 [3, 27] was >8 µg/mL, the MIC2 [3, 28] was 2 µg/mL and the MIC2 [3, 29] was 4 µg/mL. It also gave an MIC2 ([3]; C. auris MMX 9871, Susceptible) of 1 µg/mL, an MIC0 ([4]; A. flavus ATCC 22546) of 1 µg/mL and an MIC0 ([4]; A. flavus ATCC 204304) of 2 µg/mL. It also gave an MIC0 ([4]; A. flavus MMX 7935) of 0.5 µg/mL, an MIC0 ([4]; A. fumigatus ATCC 204305) of 0.5 µg/mL and an MIC0 ([4]; A. fumigatus ATCC MYA-3626) of 0.5 µg/mL. It also gave an MIC0 ([4]; A. fumigatus MMX 5934) of 0.25 µg/mL, an MIC0 ([4]; A. fumigatus MMX 5938) of 0.25 µg/mL and an MIC0 ([4]; A. fumigatus MMX 5939) of 7 µg/mL. For the same molecule, the MIC0 ([4]; A. niger ATCC 29508) was 0.5 µg/mL and the MIC0 ([4]; A. terreus MMX 8229) was 0.25 µg/mL.
